Data on 1 sequence can be found in patent US20100297157A1, “VACCINE THERAPY FOR CHOROIDAL NEOVASCULARIZATION” (priority 2007, published 2010).

The test system of one experiment is VEGF. Briefly: VEGF up-regulation in experimental CNV. The conditions noted are these: in vivo.
In another experiment the test system is tumor model. Conditions: cited from earlier work.
Experiment [1] deals with CNV lesions. Briefly: Evaluation of the grade of CNV by fluorescein angiography (leakage from laser-induced CNV lesions). The class given is in vivo, mice expressing human HLA-A*0201. The method, then: (§1) C57bl/6 mice with body weight of 20 g to 25 g were obtained from CLEA Japan (Tokyo, Japan). All experiments were conducted in accordance with the Animal Care and Use Committee and the Statement for the Use of Animals in Ophthalmic and Vision Research by the Association for Research in Vision and Opthalmology. Mice used in the experiments express human HLA-A*0201.
(§2) The mice were separated into three groups. PBS, an immunity adjuvant (incomplete Freund's adjuvant (IFA)), or a suspension of a human VEGF receptor 2-derived antigenic peptide and IFA was injected subcutaneously into the axillae twice (day 0 and day 10). […] Subsequently, on day 20, CNV was induced at three sites in both eyes using a semiconductor laser set to φ 200 μm, 200 mW, and 0.02 seconds.
(§3) Experimental CNV was induced as described elsewhere with minor modifications. In short, general anesthesia was induced with an intraperitoneal injection (1 mL/kg) of a mixture (1:1) of ketamine hydrochloride (Ketalar®, Sankyo, Tokyo, Japan) and xylazine hydrochloride (Celactal®, Bayer, Tokyo, Japan). The pupil was dilated using one drop of 0.5% tropicamide (Mydrin® M, Santen Pharmaceutical, Osaka, Japan) for photocoagulation. Six laser photocoagulations were applied to each eye between the major retinal vessels around the optic disc with a diode laser photocoagulator (DC-3000®, NIDEK, Osaka, Japan) and a slit lamp delivery system (SL150, Topcon, Tokyo, Japan) at a spot size of […], duration of 0.02 seconds, and intensity of 200 mW.
Three and seven days after CNV induction (on day 23 and day 27), a total of 169 animals were used to examine the effect on leakage from the CNV lesions (on the third day, the number of animals from the control group, low-dose group, and high-dose group was 41, 34, and 18, respectively; on the seventh day, the number of animals from the control group, low-dose group, and high-dose group was 51, 15, and 10, respectively). […]
(§4) The fluorescein fluorescent fundus angiography scores were evaluated using Mann-Whitney U test. The size of CNV lesion was evaluated by ANOVA followed by Dunnett's post hoc test. […]

Experiment [2] relates to CNV lesions. Briefly: Measurement of the CNV size by choroidal flat mount. Format: in vivo, mice expressing human HLA-A*0201. Here is the method:
as §1, §2, §3
A total of 36 mice were used for choroidal flat mount analysis (the number of mice from each group on the third day and the seventh day was 4 and 8, respectively). Three days and seven days after laser treatment, the size of CNV lesion was evaluated using choroidal flat mounts as previously described. The mice were anesthetized and perfused with 1 mL of phosphate buffered saline (PBS) containing 50 mg/mL FITC-conjugated dextran (4.4 kDa, 50 mg/kg body weight; Sigma). Then, the eyes were enucleated, and the cornea and lens were removed, and the entire retina was carefully dissected from the eye cup. Radial cuts were made from the edges of the equator, and the eyecup was flat-mounted on a glass slide with the sclera facing down. The flat-mounted sections were observed under a fluorescence microscope (Olympus DPSO), and the images were captured using a CCD camera. The data were imported into a computer using a software system (Studio lite). […] The data were expressed as mean±standard error.
as §4

Setting [3] is: seventh day, low-dose group vs control group.

Consider “VIAMFFWLL (IFA emulsion; listed as Homo sapiens) [nine amino acids from position 773 of human VEGFR-2; injected as a suspension with IFA]”, for which the VEGF up-regulation entry in the experiment with VEGF is on record as “suppresses VEGF up-regulation”. For the same sequence, in the experiment with tumor model, the antiangiogenic effect result is reported as “confirmed to have antiangiogenic effect”. Also, the “fluorescein leakage from the CNV lesions” value in the experiment on CNV lesions [1] (seventh day, high-dose group vs control) was “lower”. For the same sequence, the “leakage from CNV lesions” value with CNV lesions [1] (setting [3]) is on record as “not statistically significant, the leakage from CNV lesions was lower”. Further, in the experiment on CNV lesions [1] (third day after CNV induction, low-dose and high-dose groups vs control group, s.c. injection day 0 and day 10), the “degree of fluorescein leakage from CNV lesions” value is “no difference was observed”. Also, the CNV growth result with CNV lesions [2] (in vivo, effect observed only on the seventh day and not on the third day) is “inhibits CNV growth”. Further, the CNV lesion size entry in the experiment on CNV lesions [2] (seventh day, high-dose group vs control group) is listed as “significantly decreased”; in the experiment with CNV lesions [2] (setting [3]), “significantly decreased”; with CNV lesions [2] (third day, low-dose and high-dose groups vs control group), “No difference was observed”.
